# In paper PMC6054517, “Design and synthesis of novel oridonin analogues as potent anticancer agents” (Journal of Enzyme Inhibition and Medicinal Chemistry, 2018):
# Like-named read-outs stand apart in the source and are kept apart here.
# Key:
# Bel7402 = assay: MTT antiproliferative assay, Bel7402 cells; type: cell-based, human; details: for IC50: MTT, 48 h, means ± SD, n = 3
# Source text: (§1) Human gastric cancer (AGS), human differentiation of advanced gastric cancer (MGC803), human colorectal cancer (HCT116), human lung cancer (A549), human hepatocellular carcinoma (Bel7402) and human cervical cancer (HeLa) cell lines were obtained from the State Key Laboratory of Natural Resources and Functional Molecules of the Changbai Mountain (Yanbian University) and maintained in Dulbecco’s modified Eagle’s medium and RPMI Media 1640 (RPMI1640), supplemented with 10% foetal bovine serum 100 IU/ml penicillin, […] and 2 mmol/l L-glutamine (Sigma) at 37 °7 in a humidified atmosphere containing 5% CO2.
# (§2) All six human cancer cell lines and normal L02 cells were seeded in 96-well plates at the appropriate densities to ensure exponential growth throughout the experimental period (9 × 10^3 cells per well) and then allowed to adhere for 24 h. The cells were then treated for 48 h with four serial dilutions (100, 50, 10, and 1 µM) of each compound. 5-Fluorouracil (5-FU) was used as the positive control. After incubation for 48 h, 10 µl MTT solution was added to each well to give a final concentration of 2 mg ml^−1. The plates were then incubated for further 4 h. After incubation, the MTT solution was removed and 150 µl DMSO was added to each well to solubilise the formed product. To ensure complete solubilisation, the plates were shaken vigorously for 10 min at room temperature. The optometric density (OD) was read on a microplate reader (ELx800, BioTek, Highland Park, Winooski, VT) at a wavelength of 492 nm and the data were subsequently analysed. The percentage of cell growth inhibition was calculated from the following equation: inhibitory rate (%) = [1–(ODtreated–ODblank)/(ODcontrol–ODblank)] × 100.
# (§3) The MTT assay was performed using a standard protocol.
# HCT116 = assay: MTT antiproliferative assay, HCT116 cells; type: cell-based, human; details: for IC50: MTT, 48 h, means ± SD, n = 3
# Source text: as §1, §2, §3
# AGS = assay: MTT antiproliferative assay, AGS cells; type: cell-based, human; details: for IC50: MTT, 48 h, means ± SD, n = 3
# Source text: as §1, §2, §3
# A549 = assay: MTT antiproliferative assay, A549 cells; type: cell-based, human; details: for IC50: MTT, 48 h, means ± SD, n = 3
# Source text: as §1, §2, §3
# MGC803 = assay: MTT antiproliferative assay, MGC803 cells; type: cell-based, human; details: for IC50: MTT, 48 h, means ± SD, n = 3
# Source text: as §1, §2, §3
# L02 = assay: MTT assay on normal cell line L02; type: cell-based; details: normal human liver cell line L02, MTT, 48 h
# Experimental: as §2, with “5-Fluorouracil (5-FU) was used as the positive control.” left out
# Lack of selective cytotoxicity is the main factor that restricts the dose of most conventional chemotherapeutic agents. […] Selectivity indexes between cancer cells and L-02 cells were calculated.
# Hela = assay: MTT antiproliferative assay, HeLa cells; type: cell-based, human; details: MTT, 48 h, means ± SD, n = 3
# Source text: as §1, §2, §3
# [1] = system: AGS, MGC803, Bel7402, HCT116, A549, and HeLa; assay: MTT assay, overall statement on six tumour cell lines; type: cell-based, human; details: six cancer cell lines
# Source text: as §1, §2, §3
# A549 cells = details: cited from earlier work
Compound,"IC50 (Bel7402; Homo sapiens, Bel-7402) [µM]","IC50 (HCT116; Homo sapiens, HCT-116, 48 h) [µM]","IC50 (A549; Homo sapiens, A549) [µM]","IC50 (MGC803; Homo sapiens, MGC-803) [µM]","IC50 (Hela; Homo sapiens, HeLa) [µM]","IC50 (AGS; Homo sapiens, AGS) [µM]",antiproliferative activities against the six tumour cell lines (in words) [1],also measured
C/C1=C\[C@H]2OC(=O)/C(=C/c3ccc(Cl)cc3)[C@@H]2CC/C(C)=C/CC1 [Compound 3],,,,,,,,IC50 (A549 cells; A549 cells): 15.7 µM
"O=c1[nH]cc(F)c(=O)[nH]1 [Compound 5-FU, 5-Fluorouracil, reference compound]",21.3 ± 2.43,24.8 ± 2.08,23.7 ± 3.14,30.5 ± 4.42,34.6 ± 3.14,29.6 ± 3.4,,
CCOc1cccc2c1OC(C(=O)/C=C/c1ccc(N(C)C)cc1)C2 (stereo not drawn) [Compound 5],,,,,,,,IC50 (A549 cells; A549): 9 µM
C=C1C(=O)O[C@@H]2/C=C(\C)CC/C=C(\C)CC[C@@H]12 [Costunolide],,,,,,,,IC50 (A549 cells; A549 cells): 39.8 µM
"(1S,4aR,5S,6S,6aR,9S,11aS,14R,E)-8-(4-(((Z)-3,6-dimethylhepta-2,5-dien1yl)oxy)benzylidene)-1,5,6,14-tetrahydroxy-4,4-dimethyldecahydro-1H-6,11b-(epoxymethano)-6a,9-methanocyclohepta[a]naphthalen-7(8H)-one [Compound 2r]",,,,,,,,IC50 (Bel7402): 8.45 ± 1.32 µM; IC50 (HCT116): 2.39 ± 0.19 µM; IC50 (AGS): 13.7 ± 2.63 µM; IC50 (A549): 4.16 ± 0.45 µM; IC50 (MGC803): 6.86 ± 1.24 µM; IC50 (Hela): 9.85 ± 2.03 µM

# Continued, in another order:
"IC50 (Bel7402; Homo sapiens, Bel-7402) [µM]","IC50 (HCT116; Homo sapiens, HCT-116, 48 h) [µM]","IC50 (A549; Homo sapiens, A549) [µM]","IC50 (MGC803; Homo sapiens, MGC-803) [µM]","IC50 (Hela; Homo sapiens, HeLa) [µM]","IC50 (AGS; Homo sapiens, AGS) [µM]",Compound,antiproliferative activities against the six tumour cell lines (in words) [1],also measured
2.41 ± 0.37,2.28 ± 0.54,5.12 ± 0.49,3.49 ± 0.44,14.3 ± 2.04,,"COc1ccc(C=C2C(=O)C34C(O)C2CCC3C23COC4(O)C(O)C2C(C)(C)CCC3O)c(OC)c1 [Compound 2l, (1S,4aR,5S,6S,6aR,9S,11aS,14R,E)-8-(2,4-dimethoxybenzylidene)-1,5,6,14-tetrahydroxy-4,4-dimethyldecahydro-1H-6,11b-(epoxymethano)-6a,9-methanocyclohe-pta[a]naphthalen-7(8H)-one]",more potent antiproliferative activities in vitro than oridonin,Selectivity index Bel7402 (Bel7402; IC50 on normal cells (L02)/IC50 on tumour cells (Bel7402)): 2.97; Selectivity index HCT116 (HCT116; IC50 on normal cells (L02)/IC50 on tumour cells (HCT116)): 3.14; Selectivity index AGS (AGS; IC50 on normal cells (L02)/IC50 on tumour cells (AGS)): 1.22; IC50 (AGS): 5.85 ± 1.55 µM; Selectivity index A549 (A549; IC50 on normal cells (L02)/IC50 on tumour cells (A549)): 1.40; Selectivity index MGC803 (MGC803; IC50 on normal cells (L02)/IC50 on tumour cells (MGC803)): 2.05; IC50 (L02): 7.15 ± 1.36 µM
7 ± 1.05,10 ± 1.13,99.8 ± 7.45,53.2 ± 4.05,> 100,51 ± 3.34,"CC1(C)CC[C@H](O)C23CO[C@](O)([C@@H](O)[C@H]12)[C@]12C(=O)/C(=C/c4ccc(N)cc4)[C@H](CC[C@@H]31)[C@H]2O [Compound 2s, (1S,4aR,5S,6S,6aR,9S,11aS,14R,E)-8-(4-aminobenzylidene)-1,5,6,14-tetrahydroxy-4,4-dimethyldecahydro-1H-6,11b-(epoxymethano)-6a,9-methanocyclohepta[a]-naphthalen-7(8H)-one]",poor antiproliferative activities,
14.6 ± 1.66,47.9 ± 3.91,97.1 ± 5.93,10 ± 0.84,> 100,22.1 ± 1.04,"CC(=O)Nc1ccc(/C=C2/C(=O)[C@]34[C@H](O)[C@H]2CC[C@H]3C23CO[C@]4(O)[C@@H](O)[C@@H]2C(C)(C)CC[C@@H]3O)cc1 [Compound 2t, N-(4-((E)-((1S,4aR,5S,6S,6aR,9S,11aS,14R)-1,5,6,14-tetrahydroxy-4,4-dimethyl-7-oxodecahydro-1H-6,11b-(epoxymethano)-6a,9-methanocyclohepta[a]naphthalen-8(7H)-ylidene)methyl)phenyl)acetamide]",poor antiproliferative activities,
7.35 ± 1.28,4.02 ± 0.33,21.5 ± 1.88,12.2 ± 0.94,9.79 ± 1.08,12 ± 1.99,"CC1(C)CC[C@H](O)C23CO[C@](O)([C@@H](O)[C@H]12)[C@]12C(=O)/C(=C/c4ccc(NC(=O)c5ccccc5)cc4)[C@H](CC[C@@H]31)[C@H]2O [Compound 2u, N-(4-((E)-((1S,4aR,5S,6S,6aR,9S,11aS,14R)-1,5,6,14-tetrahydroxy-4,4-dimethyl-7-oxodecahydro-1H-6,11b-(epoxymethano)-6a,9-methanocyclohepta[a]naphthalen-8(7H)-ylidene)methyl)phenyl)benzamide]",,
60.3 ± 4.14,28.2 ± 2.67,> 100,32.9 ± 2.31,> 100,30.3 ± 2.24,"CC1(C)CC[C@H](O)C23CO[C@](O)([C@@H](O)[C@H]12)[C@]12C(=O)/C(=C/c4ccccc4O)[C@H](CC[C@@H]31)[C@H]2O [Compound 2v, (1S,4aR,5S,6S,6aR,9S,11aS,14R,E)-1,5,6,14-tetrahydroxy-8-(2-hydroxybenzylidene)-4,4-dimethyldecahydro-1H-6,11b-(epoxymethano)-6a,9-methanocyclohepta[a]naphthalen-7(8H)-one]",poor antiproliferative activities,
> 100,22.1 ± 3.28,> 100,> 100,> 100,> 100,"CC1(C)CC[C@H](O)C23CO[C@](O)([C@@H](O)[C@H]12)[C@]12C(=O)/C(=C/c4cccc(O)c4)[C@H](CC[C@@H]31)[C@H]2O [Compound 2w, (1S,4aR,5S,6S,6aR,9S,11aS,14R,E)-1,5,6,14-tetrahydroxy-8-(3-hydroxybenzylidene)-4,4-dimethyldecahydro-1H-6,11b-(epoxymethano)-6a,9-methanocyclohepta[a]naphthalen-7(8H)-one]",poor antiproliferative activities,
> 100,30.1 ± 3.57,> 100,> 100,> 100,> 100,"CC1(C)CC[C@H](O)C23CO[C@](O)([C@@H](O)[C@H]12)[C@]12C(=O)/C(=C/c4ccc(O)cc4)[C@H](CC[C@@H]31)[C@H]2O [Compound 2x, (1S,4aR,5S,6S,6aR,9S,11aS,14R,E)-1,5,6,14-tetrahydroxy-8-(4-hydroxybenzylidene)-4,4-dimethyldecahydro-1H-6,11b-(epoxymethano)-6a,9-methanocyclohepta[a]naphthalen-7(8H)-one]",poor antiproliferative activities,
51.2 ± 5.43,17.5 ± 1.44,12.6 ± 1.39,21 ± 1.24,26 ± 1.48,55 ± 4.43,"CC1(C)CCC(O)C23COC(O)(C(O)C12)C12C(=O)C(=Cc4ccc5ccccc5c4)C(CCC31)C2O [Compound 2y, (1S,4aR,5S,6S,6aR,9S,11aS,14R,E)-1,5,6,14-tetrahydroxy-4,4-dimethyl-8-(napht-halen-2-ylmethylene)decahydro-1H-6,11b-(epoxymethano)-6a,9-methanocyclohepta[a]naphthalen-7(8H)-one]",,
